The molecules below were run against T1, human PAH with the R408W mutation (Homo sapiens, UniProt P00439, R408W) (assay: Cell Based Phenylalanine Flux Assay). Conditions: A375 cells expressing human PAH R408W; 24 hrs compound incubation; 13C-Tyrosine by LC-MS; average where tested multiple times; read-out: AC50.
T1 construct: expressed in transfected cells
T1 sequence (P00439 1-452 R408W): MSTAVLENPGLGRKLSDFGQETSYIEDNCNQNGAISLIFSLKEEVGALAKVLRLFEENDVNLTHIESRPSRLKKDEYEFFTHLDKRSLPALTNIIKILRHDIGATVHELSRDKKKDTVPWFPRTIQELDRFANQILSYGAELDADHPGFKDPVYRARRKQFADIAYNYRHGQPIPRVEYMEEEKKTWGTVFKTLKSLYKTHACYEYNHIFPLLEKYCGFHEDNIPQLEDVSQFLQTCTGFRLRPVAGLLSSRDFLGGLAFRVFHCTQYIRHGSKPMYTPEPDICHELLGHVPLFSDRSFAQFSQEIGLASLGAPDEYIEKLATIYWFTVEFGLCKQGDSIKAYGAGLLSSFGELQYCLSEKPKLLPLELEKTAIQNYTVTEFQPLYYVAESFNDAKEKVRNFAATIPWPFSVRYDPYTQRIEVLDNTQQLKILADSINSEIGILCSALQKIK
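Also: after compound treatment, cells received sepiapterin plus isotope-labelled Phenylalanine for 4 hours, then labelled Tyrosine in the medium was quantified, 10-point 2-fold dilution series run in duplicate.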

Which AC50 does the source give for Cc1cc(C(=O)N2CCc3[nH]cnc3[C@H]2c2cc3c(F)cccn3n2)n(C)n1 [Example 2390, (S)-(1,3-dimethyl-1H-pyrazol-5-yl)(4-(4-fluoropyrazolo[1,5-a]pyridin-2-yl)-6,7-dihydro-1H-imidazo[4,5-c]pyridin-5(4H)-yl)methanone] here?
The AC50 was 1000 to 5000 nM.

COc1cccn2nc([C@@H]3c4nc[nH]c4CCN3C(=O)c3nc(C)nn3C)cc12 [Example 2393, (S)-(1,3-dimethyl-1H-1,2,4-triazol-5-yl)(4-(4-methoxypyrazolo[1,5-a]pyridin-2-yl)-6,7-dihydro-1H-imidazo[4,5-c]pyridin-5(4H)-yl)methanone] was tested. Which AC50 did it give?
The AC50 was 1000 to 5000 nM.

For Cc1cccc2cc([C@H]3c4nc[nH]c4CCN3C(=O)c3nnc(-c4cn(C)cn4)o3)nn12 [Example 2394, (R)-(5-(1-methyl-1H-imidazol-4-yl)-1,3,4-oxadiazol-2-yl)(4-(7-methylpyrazolo[1,5-a]pyridin-2-yl)-6,7-dihydro-1H-imidazo[4,5-c]pyridin-5(4H)-yl)methanone], which AC50 is on record?
The AC50 was greater than 5000 nM.

For Cc1cccc2cc([C@@H]3c4nc[nH]c4CCN3C(=O)c3nnc(-c4cn(C)cn4)o3)nn12 [Example 2395, (S)-(5-(1-methyl-1H-imidazol-4-yl)-1,3,4-oxadiazol-2-yl)(4-(7-methylpyrazolo[1,5-a]pyridin-2-yl)-6,7-dihydro-1H-imidazo[4,5-c]pyridin-5(4H)-yl)methanone], which AC50 is on record?
Its AC50 is 1000 to 5000 nM.

Cn1nc(C(F)F)nc1C(=O)N1CCc2[nH]cnc2[C@H]1c1cc2cccc(Cl)n2n1 [Example 2396, (S)-(4-(7-chloropyrazolo[1,5-a]pyridin-2-yl)-6,7-dihydro-1H-imidazo[4,5-c]pyridin-5(4H)-yl)(3-(difluoromethyl)-1-methyl-1H-1,2,4-triazol-5-yl)methanone] was tested. Which AC50 did it give?
The AC50 was 1000 to 5000 nM.

Which AC50 does the source give for Cn1nc(C(F)(F)F)nc1C(=O)N1CCc2[nH]cnc2[C@H]1c1cc2c(F)cccn2n1 [Example 2398, (S)-(4-(4-fluoropyrazolo[1,5-a]pyridin-2-yl)-6,7-dihydro-1H-imidazo[4,5-c]pyridin-5(4H)-yl)(1-methyl-3-(trifluoromethyl)-1H-1,2,4-triazol-5-yl)methanone] here?
The AC50 was 1000 to 5000 nM.

Which AC50 does the source give for Cn1nc(C(F)(F)F)nc1C(=O)N1CCc2[nH]cnc2[C@@H]1c1cc2c(F)cccn2n1 [Example 2399, (R)-(4-(4-fluoropyrazolo[1,5-a]pyridin-2-yl)-6,7-dihydro-1H-imidazo[4,5-c]pyridin-5(4H)-yl)(1-methyl-3-(trifluoromethyl)-1H-1,2,4-triazol-5-yl)methanone] here?
Its AC50 is 1000 to 5000 nM.

Which AC50 does the source give for O=C(c1ocnc1C(F)F)N1CCc2[nH]cnc2[C@H]1c1cc2cc(F)ccn2n1 [Example 2400, (S)-(4-(difluoromethyl)oxazol-5-yl)(4-(5-fluoropyrazolo[1,5-a]pyridin-2-yl)-6,7-dihydro-1H-imidazo[4,5-c]pyridin-5(4H)-yl)methanone] here?
Its AC50 is less than 500 nM.

With O=C(c1ocnc1C(F)F)N1CCc2[nH]cnc2[C@@H]1c1cc2cc(F)ccn2n1 [Example 2401, (R)-(4-(difluoromethyl)oxazol-5-yl)(4-(5-fluoropyrazolo[1,5-a]pyridin-2-yl)-6,7-dihydro-1H-imidazo[4,5-c]pyridin-5(4H)-yl)methanone] as the molecule, how does the AC50 read?
Its AC50 is 1000 to 5000 nM.

For Cc1ccc2cc([C@@H]3c4nc[nH]c4CCN3C(=O)c3nc(C(F)F)nn3C)nn2c1 [Example 2403, (S)-(3-(difluoromethyl)-1-methyl-1H-1,2,4-triazol-5-yl)(4-(6-methylpyrazolo[1,5-a]pyridin-2-yl)-6,7-dihydro-1H-imidazo[4,5-c]pyridin-5(4H)-yl)methanone], which AC50 is on record?
Its AC50 is 1000 to 5000 nM.

For O=C(c1nnc(C2CC2)o1)N1CCc2[nH]cnc2[C@@H]1c1cc2ccc(F)cn2n1 [Example 2405, (R)-(5-cyclopropyl-1,3,4-oxadiazol-2-yl)(4-(6-fluoropyrazolo[1,5-a]pyridin-2-yl)-6,7-dihydro-1H-imidazo[4,5-c]pyridin-5(4H)-yl)methanone], which AC50 is on record?
The AC50 was greater than 5000 nM.

Which AC50 does the source give for CC(C)(O)c1nc(C(F)F)c(C(=O)N2CCc3[nH]cnc3[C@H]2c2cc3cc(C(F)(F)F)ccn3n2)o1 [Example 2406, (S)-(4-(difluoromethyl)-2-(2-hydroxypropan-2-yl)oxazol-5-yl)(4-(5-(trifluoromethyl)pyrazolo[1,5-a]pyridin-2-yl)-6,7-dihydro-1H-imidazo[4,5-c]pyridin-5(4H)-yl)methanone] here?
Its AC50 is less than 500 nM.

Which AC50 does the source give for CC(C)(C)c1nnc(C(=O)N2CCc3[nH]cnc3[C@H]2c2cc3cccc(C(F)(F)F)n3n2)o1 [Example 2409, (S)-(5-(tert-butyl)-1,3,4-oxadiazol-2-yl)(4-(7-(trifluoromethyl)pyrazolo[1,5-a]pyridin-2-yl)-6,7-dihydro-1H-imidazo[4,5-c]pyridin-5(4H)-yl)methanone] here?
The AC50 was 1000 to 5000 nM.

Cn1nc(C(F)F)nc1C(=O)N1CCc2[nH]cnc2[C@H]1c1cc2cc(C(F)(F)F)ccn2n1 [Example 2410, (S)-(3-(difluoromethyl)-1-methyl-1H-1,2,4-triazol-5-yl)(4-(5-(trifluoromethyl)pyrazolo[1,5-a]pyridin-2-yl)-6,7-dihydro-1H-imidazo[4,5-c]pyridin-5(4H)-yl)methanone] was tested. Which AC50 did it give?
Its AC50 is 500 to 1000 nM.

For Cn1nc(C(F)(F)F)nc1C(=O)N1CCc2[nH]cnc2[C@H]1c1cc2cccc(Cl)n2n1 [Example 2412, (S)-(4-(7-chloropyrazolo[1,5-a]pyridin-2-yl)-6,7-dihydro-1H-imidazo[4,5-c]pyridin-5(4H)-yl)(1-methyl-3-(trifluoromethyl)-1H-1,2,4-triazol-5-yl)methanone], which AC50 is on record?
Its AC50 is 1000 to 5000 nM.

How did the AC50 turn out when O=C(c1nnc(-c2ccccn2)o1)N1CCc2[nH]cnc2[C@H]1c1cc2ccc(C(F)(F)F)cn2n1 [Example 2414, (S)-(5-(pyridin-2-yl)-1,3,4-oxadiazol-2-yl)(4-(6-(trifluoromethyl)pyrazolo[1,5-a]pyridin-2-yl)-6,7-dihydro-1H-imidazo[4,5-c]pyridin-5(4H)-yl)methanone] was run?
The AC50 was 1000 to 5000 nM.

With O=C(c1nnc(-c2ccccn2)o1)N1CCc2[nH]cnc2[C@@H]1c1cc2ccc(C(F)(F)F)cn2n1 [Example 2415, (R)-(5-(pyridin-2-yl)-1,3,4-oxadiazol-2-yl)(4-(6-(trifluoromethyl)pyrazolo[1,5-a]pyridin-2-yl)-6,7-dihydro-1H-imidazo[4,5-c]pyridin-5(4H)-yl)methanone] as the molecule, how does the AC50 read?
Its AC50 is 1000 to 5000 nM.

Cn1cc(-c2nnc(C(=O)N3CCc4[nH]cnc4[C@@H]3c3cc4ccc(C(F)(F)F)cn4n3)o2)cn1 [Example 2417, (R)-(5-(1-methyl-1H-pyrazol-4-yl)-1,3,4-oxadiazol-2-yl)(4-(6-(trifluoromethyl)pyrazolo[1,5-a]pyridin-2-yl)-6,7-dihydro-1H-imidazo[4,5-c]pyridin-5(4H)-yl)methanone] was tested. Which AC50 did it give?
Its AC50 is 1000 to 5000 nM.

For Cn1nc(C2CC2)nc1C(=O)N1CCc2[nH]cnc2[C@H]1c1cc2cccc(C(F)(F)F)n2n1 [Example 2419, (S)-(3-cyclopropyl-1-methyl-1H-1,2,4-triazol-5-yl)(4-(7-(trifluoromethyl)pyrazolo[1,5-a]pyridin-2-yl)-6,7-dihydro-1H-imidazo[4,5-c]pyridin-5(4H)-yl)methanone], which AC50 is on record?
The AC50 was 1000 to 5000 nM.

Which AC50 does the source give for CC(C)(F)c1nnc(C(=O)N2CCc3[nH]cnc3[C@H]2c2cc3ccc(C(F)(F)F)cn3n2)o1 [Example 2420, (S)-(5-(2-fluoropropan-2-yl)-1,3,4-oxadiazol-2-yl)(4-(6-(trifluoromethyl)pyrazolo[1,5-a]pyridin-2-yl)-6,7-dihydro-1H-imidazo[4,5-c]pyridin-5(4H)-yl)methanone] here?
The AC50 was 1000 to 5000 nM.

With CC(C)(F)c1nnc(C(=O)N2CCc3[nH]cnc3[C@@H]2c2cc3ccc(C(F)(F)F)cn3n2)o1 [Example 2421, (R)-(5-(2-fluoropropan-2-yl)-1,3,4-oxadiazol-2-yl)(4-(6-(trifluoromethyl)pyrazolo[1,5-a]pyridin-2-yl)-6,7-dihydro-1H-imidazo[4,5-c]pyridin-5(4H)-yl)methanone] as the molecule, how does the AC50 read?
The AC50 was 1000 to 5000 nM.

How did the AC50 turn out when Cc1nc([C@H](C)O)oc1C(=O)N1CCc2[nH]cnc2[C@H]1c1cc2cccc(C(F)(F)F)n2n1 [Example 2422, (2-((S)-1-hydroxyethyl)-4-methyloxazol-5-yl)((S)-4-(7-(trifluoromethyl)pyrazolo[1,5-a]pyridin-2-yl)-6,7-dihydro-1H-imidazo[4,5-c]pyridin-5(4H)-yl)methanone] was run?
The AC50 was 1000 to 5000 nM.

O=C(c1cnn2ccccc12)N1CCc2[nH]cnc2[C@H]1c1cc2cccc(Cl)n2n1 [Example 2424, (S)-(4-(7-chloropyrazolo[1,5-a]pyridin-2-yl)-6,7-dihydro-1H-imidazo[4,5-c]pyridin-5(4H)-yl)(pyrazolo[1,5-a]pyridin-3-yl)methanone] was tested. Which AC50 did it give?
The AC50 was 1000 to 5000 nM.

For O=C(c1nnc(-c2cnn(C(F)(F)F)c2)o1)N1CCc2[nH]cnc2[C@H]1c1cc2ccccn2n1 [Example 2426, (S)-(4-(pyrazolo[1,5-a]pyridin-2-yl)-6,7-dihydro-1H-imidazo[4,5-c]pyridin-5(4H)-yl)(5-(1-(trifluoromethyl)-1H-pyrazol-4-yl)-1,3,4-oxadiazol-2-yl)methanone], which AC50 is on record?
Its AC50 is 1000 to 5000 nM.

Which AC50 does the source give for O=C(c1nnc(-c2cnn(C(F)(F)F)c2)o1)N1CCc2[nH]cnc2[C@@H]1c1cc2ccccn2n1 [Example 2427, (R)-(4-(pyrazolo[1,5-a]pyridin-2-yl)-6,7-dihydro-1H-imidazo[4,5-c]pyridin-5(4H)-yl)(5-(1-(trifluoromethyl)-1H-pyrazol-4-yl)-1,3,4-oxadiazol-2-yl)methanone] here?
Its AC50 is greater than 5000 nM.

Source: patent publication US20230365592A1 (Agios Pharmaceuticals, Inc., priority 2022, published 2023)
